Experimental findings from patent publication US4570006A, “Amidine compound, process for producing same and anti-complement agent comprising same” (Torii & Co. Ltd., priority 1981, dated 1986) are described below.

One assay deals with Plasmin (Homo sapiens, UniProt P00747). The assay can be described thus: Anti-plasmin activity (inhibition of TAME hydrolysis). Format: biochemical. As to conditions: read-out: ID50, plasmin. How it is done:
(§1) The anti-trypsin, anti-plasmin, anti-kallikrein and anti-thrombin activities were determined according to the method of Muramatsu et al. [M. Muramatsu, T. Onishi, S. Makino, Y. Hayashi and S. Fujii, J. of Biochem., 58, 214 (1965)]. The data summarized in Table 1 are expressed in terms of molar concentration (ID50) of the test compound which inhibits 50% of the activity of each enzyme to hydrolyze TAME (tosylarginine methyl ester). The compound No. corresponds to the compound number shown in Examples.

Another assay has as its target T1, Trypsin (Bos taurus, UniProt P00760).
T1 sequence (P00760 24-246): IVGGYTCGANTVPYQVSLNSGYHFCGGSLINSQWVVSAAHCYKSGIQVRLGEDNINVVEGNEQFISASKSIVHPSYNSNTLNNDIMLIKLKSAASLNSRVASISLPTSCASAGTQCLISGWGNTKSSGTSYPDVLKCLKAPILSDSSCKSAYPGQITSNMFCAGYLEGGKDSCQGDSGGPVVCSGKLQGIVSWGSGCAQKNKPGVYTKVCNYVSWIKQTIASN
The assay can be described thus: Anti-trypsin activity (inhibition of TAME hydrolysis). Format: biochemical. As to conditions: read-out: ID50, trypsin. On the procedure:
as §1

A further assay concerns complement. The assay can be described thus: Inhibition of complement mediated hemolysis. In kind it is cell-based.
A further assay deals with Kallikrein. The assay can be described thus: Anti-kallikrein activity (inhibition of TAME hydrolysis). As to conditions: read-out: ID50, kallikrein. In kind it is biochemical. How it is done: as §1
The next assay has as its target Thrombin (Homo sapiens, UniProt P00734). The assay can be described thus: biochemical. As to conditions: read-out: ID50, thrombin.
The next assay concerns the target T2, Clr (Homo sapiens, UniProt P00736).
T2 sequence (P00736 464-705 limits assumed): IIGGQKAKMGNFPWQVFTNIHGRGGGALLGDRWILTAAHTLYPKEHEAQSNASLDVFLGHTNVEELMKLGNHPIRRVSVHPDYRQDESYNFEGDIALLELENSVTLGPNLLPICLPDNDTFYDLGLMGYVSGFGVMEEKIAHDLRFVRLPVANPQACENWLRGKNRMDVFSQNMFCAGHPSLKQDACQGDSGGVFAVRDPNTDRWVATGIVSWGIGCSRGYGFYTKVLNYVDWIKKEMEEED
T2 sequence (P00736 18-463 limits assumed): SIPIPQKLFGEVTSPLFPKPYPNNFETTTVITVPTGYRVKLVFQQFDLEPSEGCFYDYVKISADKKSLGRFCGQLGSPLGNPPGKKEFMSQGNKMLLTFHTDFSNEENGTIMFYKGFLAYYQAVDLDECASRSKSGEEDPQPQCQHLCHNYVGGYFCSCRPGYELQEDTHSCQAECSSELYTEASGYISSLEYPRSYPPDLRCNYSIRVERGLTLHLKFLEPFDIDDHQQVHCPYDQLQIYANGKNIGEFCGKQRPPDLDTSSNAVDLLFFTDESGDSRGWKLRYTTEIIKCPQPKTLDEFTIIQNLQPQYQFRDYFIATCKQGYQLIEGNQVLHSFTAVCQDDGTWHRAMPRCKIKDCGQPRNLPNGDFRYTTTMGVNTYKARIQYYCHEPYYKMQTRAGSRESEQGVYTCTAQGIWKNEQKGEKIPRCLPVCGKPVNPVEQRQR
Briefly: Anti-Cl esterase activity, Clr (AAME hydrolysis). In kind it is biochemical. As to conditions: hydrolysis of AAME; read-out: Anti-Cl activity, Clr (ID50). On the procedure:
The anti-Cl esterase ([…]) activity was determined according to the method of Okamura et al. [K. Okamura, M. Muramatsu and B. Fujii, Biochem. Biophys.

A further assay addresses T3, Cls (Homo sapiens, UniProt P09871).
T3 sequence (P09871 438-688 limits assumed): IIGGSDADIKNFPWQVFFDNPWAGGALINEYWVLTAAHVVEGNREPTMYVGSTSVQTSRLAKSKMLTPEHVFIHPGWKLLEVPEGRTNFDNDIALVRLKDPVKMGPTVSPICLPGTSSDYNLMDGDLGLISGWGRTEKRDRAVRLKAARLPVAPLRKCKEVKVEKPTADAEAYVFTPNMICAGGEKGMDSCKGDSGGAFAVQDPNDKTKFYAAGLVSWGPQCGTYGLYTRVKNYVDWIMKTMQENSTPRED
T3 sequence (P09871 16-437 limits assumed): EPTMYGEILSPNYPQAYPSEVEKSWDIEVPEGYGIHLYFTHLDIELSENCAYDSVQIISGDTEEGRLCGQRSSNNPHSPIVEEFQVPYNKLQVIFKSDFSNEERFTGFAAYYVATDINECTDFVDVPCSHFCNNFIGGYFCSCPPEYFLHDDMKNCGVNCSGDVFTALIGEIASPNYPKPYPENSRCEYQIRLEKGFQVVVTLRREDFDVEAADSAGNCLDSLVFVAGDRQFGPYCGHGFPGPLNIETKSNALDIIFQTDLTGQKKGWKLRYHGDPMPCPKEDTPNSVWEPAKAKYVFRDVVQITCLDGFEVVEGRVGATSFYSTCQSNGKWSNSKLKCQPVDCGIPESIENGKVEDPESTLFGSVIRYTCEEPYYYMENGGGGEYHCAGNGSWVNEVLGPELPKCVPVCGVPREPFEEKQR
The assay can be described thus: Anti-Cl esterase activity, Cls (ATEE hydrolysis). In kind it is biochemical. As to conditions: hydrolysis of ATEE; read-out: Anti-Cl activity, Cls (50% inhibition). On the procedure:
The anti-Cl esterase (Clr, Cls) activity was determined according to the method of Okamura et al. [K. Okamura, M. Muramatsu and B. Fujii, Biochem. Biophys. […] The figures in Table 2 have the following meanings:
Cls: Molar concentration of the test compound which inhibits 50% of the ability of Cls to hydrolyse ATEE (acetyltyrosin ethyl ester).

SMILES strings stand for the structures. Read-outs that look alike come from different tables or passages of the source.

Chain of Plasmin (P00747 581-810 limits assumed, species assumed): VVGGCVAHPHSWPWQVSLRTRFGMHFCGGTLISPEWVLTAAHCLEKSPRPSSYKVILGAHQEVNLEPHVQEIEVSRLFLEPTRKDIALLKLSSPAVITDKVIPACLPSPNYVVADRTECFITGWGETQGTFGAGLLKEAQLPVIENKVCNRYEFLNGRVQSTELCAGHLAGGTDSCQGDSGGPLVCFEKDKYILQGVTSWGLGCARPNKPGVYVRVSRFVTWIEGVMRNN
Chain of Plasmin (P00747 97-580 limits assumed, species assumed): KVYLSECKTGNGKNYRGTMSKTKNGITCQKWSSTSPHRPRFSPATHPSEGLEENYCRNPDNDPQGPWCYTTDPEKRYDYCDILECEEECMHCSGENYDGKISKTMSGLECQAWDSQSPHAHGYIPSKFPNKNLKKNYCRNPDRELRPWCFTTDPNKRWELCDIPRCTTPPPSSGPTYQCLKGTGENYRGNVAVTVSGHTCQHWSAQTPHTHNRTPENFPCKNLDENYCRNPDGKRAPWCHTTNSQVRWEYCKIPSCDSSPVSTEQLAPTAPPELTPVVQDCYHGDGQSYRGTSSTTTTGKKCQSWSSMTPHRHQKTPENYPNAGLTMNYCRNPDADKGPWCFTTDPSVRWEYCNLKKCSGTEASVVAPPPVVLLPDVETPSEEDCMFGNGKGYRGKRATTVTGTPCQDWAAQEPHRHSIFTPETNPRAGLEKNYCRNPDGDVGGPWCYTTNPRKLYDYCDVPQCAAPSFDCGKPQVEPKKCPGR

In the case of `CC=CC=CC(=O)Oc1ccc(C(=N)N)cc1C(=O)OC` [Compound 5], the IC50 turned out to be 300 nM on Plasmin; 0.7 µM at Trypsin; 1000 nM in the assay on Kallikrein; 2 µM on Thrombin (TAME hydrolysis); 5 µM on Clr; 900 nM at Cls. Moreover, the “Inhibition of complement mediated hemolysis (%)” value (“Inhibition … (%)” for short) turned out to be 100% in the assay with complement (compound at 1 × 10^-4), 97.0% in the assay on complement (compound at 1 × 10^-5), 47.2% in the assay with complement (compound at 1 × 10^-6) and 3.0% in the assay on complement (compound at 1 × 10^-7).
Regarding `N=C(N)c1ccc(OC(=O)CCCCCNC(=O)OCc2ccccc2)c(C(=O)c2ccccc2)c1` [Compound 12, 4-amidino-2-benzoylphenyl 6-benzyloxycarbonylaminocaproate], the IC50 was more than 10000 nM on Plasmin; 6 µM on Trypsin; more than 10000 nM with Kallikrein; 4 µM at Thrombin (TAME hydrolysis); more than 10 µM on Clr; 5000 nM at Cls. Further, the “Inhibition … (%)” value is on record as 91.3% in the assay with complement (compound at 1 × 10^-4), 57.8% in the assay on complement (compound at 1 × 10^-5), 15.0% with complement (compound at 1 × 10^-6) and 3.8% with complement (compound at 1 × 10^-7).
`COc1cc(C(=N)N)ccc1OC(=O)CCCCCNC(=N)N` [Compound 14, 4-amidino-2-methoxyphenyl 6-guanidinocaproate]: the IC50 is 10000 nM on Plasmin; 10 µM on Trypsin; 10000 nM in the assay with Kallikrein; 10 µM at Thrombin (TAME hydrolysis); more than 10 µM on Clr; more than 10000 nM on Cls. For the same molecule, the “Inhibition … (%)” value with complement (compound at 1 × 10^-4) worked out at 63.6%; with complement (compound at 1 × 10^-5), 16.2%; in the assay with complement (compound at 1 × 10^-6), 7.0%; with complement (compound at 1 × 10^-7) it was 0%.
As to `COC(=O)c1cc(C(=N)N)ccc1OC(=O)[C@H]1CC[C@H](CNC(=O)OCc2ccccc2)CC1` [Compound 18, 4-amidino-2-methoxycarbonylphenyl trans-4-benzyloxycarbonylaminomethylcyclohexanecarboxylate], the IC50 at Plasmin is 500 nM; on Trypsin, 3 µM; in the assay with Kallikrein, 1000 nM; at Thrombin (TAME hydrolysis), 4 µM; at Clr it was more than 10 µM; on Cls, 2000 nM. For the same molecule, the “Inhibition … (%)” value with complement (compound at 1 × 10^-4) came to 98.8%; with complement (compound at 1 × 10^-5) it was 73.2%; in the assay with complement (compound at 1 × 10^-6), 11.4%; with complement (compound at 1 × 10^-7), 2.2%.
Regarding `N=C(N)c1ccc(OC(=O)CCCc2ccccc2)c(C(=O)c2ccccc2)c1` [Compound 33], the IC50 on Plasmin is more than 10000 nM; on Trypsin, more than 10 µM; in the assay on Kallikrein it was more than 10000 nM; on Thrombin (TAME hydrolysis), more than 10 µM; at Clr it was more than 10 µM; at Cls, more than 10000 nM. Besides, the “Inhibition … (%)” value is recorded as 94.1% in the assay on complement (compound at 1 × 10^-4), 20.4% in the assay on complement (compound at 1 × 10^-5), 0% in the assay with complement (compound at 1 × 10^-6) and 0% in the assay with complement (compound at 1 × 10^-7).
On to `N=C(N)c1ccc(OC(=O)C=Cc2ccccc2)c([N+](=O)[O-])c1` [Compound 34], for which the IC50 on Plasmin is 4000 nM; on Trypsin, 4 µM; with Kallikrein it was more than 10000 nM; on Thrombin, 3 µM; at Clr, 3 µM; on Cls it was 3000 nM. The “Inhibition … (%)” value stood at 99.6% in the assay on complement (compound at 1 × 10^-4), 96.7% in the assay on complement (compound at 1 × 10^-5), 53.7% with complement (compound at 1 × 10^-6) and 12.4% in the assay with complement (compound at 1 × 10^-7).
Regarding `N=C(N)c1ccc(OC(=O)c2ccccc2)c(C(=O)c2ccccc2)c1` [Compound 29, 4-amidino-2-benzoylphenyl benzoate], the IC50 on Plasmin turned out to be 400 nM; at Trypsin, 0.8 µM; with Kallikrein, 1000 nM; at Thrombin (TAME hydrolysis), 0.03 µM; on Clr, 3 µM; at Cls it was 300 nM. Also, the “Inhibition … (%)” value came out at 98.4% with complement (compound at 1 × 10^-4), 97.9% in the assay with complement (compound at 1 × 10^-5), 67.8% in the assay on complement (compound at 1 × 10^-6) and 8.0% in the assay with complement (compound at 1 × 10^-7).
As for `N=C(N)c1ccc(OC(=O)c2ccccc2)c(NC(=O)c2ccccc2)c1` [Compound 30, 4-amidino-2-benzoylaminophenyl benzoate], the IC50 turned out to be 400 nM at Plasmin; 0.3 µM on Trypsin; 200 nM in the assay on Kallikrein; 0.03 µM on Thrombin (TAME hydrolysis); 0.9 µM on Clr; 300 nM on Cls. The “Inhibition … (%)” value came out at 100% with complement (compound at 1 × 10^-4), 100% in the assay with complement (compound at 1 × 10^-5), 99.0% in the assay with complement (compound at 1 × 10^-6) and 45.3% with complement (compound at 1 × 10^-7).
On to `CN(C)c1ccc(C(=O)Oc2ccc(C(=N)N)cc2C(=O)c2ccccc2)cc1` [Compound 66, 4-amidino-2-benzoylphenyl 4-dimethylaminobenzoate], for which the IC50 on Plasmin was found to be 400 nM; on Trypsin it was 0.01 µM; in the assay on Kallikrein, 200 nM; at Thrombin (TAME hydrolysis), 0.2 µM; on Clr, 3 µM; on Cls, 40 nM. In addition, the “Inhibition … (%)” value with complement (compound at 1 × 10^-4) came to 99.1%; with complement (compound at 1 × 10^-5), 96.4%; in the assay with complement (compound at 1 × 10^-6) it was 41.7%; in the assay with complement (compound at 1 × 10^-7), 0%.
`N=C(N)c1ccc(OC(=O)c2ccccc2)c(S(=O)(=O)O)c1` [Compound 28, 5-amidino-2-benzoyloxybenzenesulfonic acid]: the IC50 is 7000 nM on Plasmin; 10 µM on Trypsin; more than 10000 nM in the assay on Kallikrein; 3 µM at Thrombin (TAME hydrolysis); more than 10 µM on Clr; 3000 nM at Cls. Also, the “Inhibition … (%)” value in the assay with complement (compound at 1 × 10^-4) amounted to 79.1%; with complement (compound at 1 × 10^-5), 25.0%; with complement (compound at 1 × 10^-6), 22.8%; in the assay on complement (compound at 1 × 10^-7), 23.8%.
